Among the data in a melting point compilation (Tetko et al.; mined from patent text by program, amines drawn as free bases though some values may be those of a salt) are melting point values, retold here.

Bounds are passed on as bounds.

In the case of `COc1cc(OC)nc(Cc2nscc2C(=O)N(C)c2ccccc2)n1`, the melting point was 92 to 93 °C.
The result for `CC(=NO)c1nn(C)c2cc(Oc3ccc(Cl)cc3)ccc12` reads 148 to 150 °C; that for `CC(=O)CC(=O)N(C)c1cccc(-c2ccc3nnc(C)n3n2)c1`, 138 to 141 °C.
The result for `CCOC(=O)C(C(=O)CC(C)C)C1c2ccccc2C(=O)N1c1ccc2ccc(Cl)nc2n1` (stereo not given) reads 145 °C; that for `CCCCc1cn(CCCC)c(=O)n1Cc1ccc(-c2ncccc2-c2nnn[nH]2)cc1`, 178 to 180 °C.
In the case of `CN(Cc1cn(C23CC4CC(CC(C4)C2)C3)nn1)Cc1cccs1`, the melting point fell in the range of 66 to 68 °C.
Take `COC(=O)c1c(Cl)cc(Cl)cc1NC(=O)CSc1ccc(NC(=O)Cc2ccccc2)cc1`: the melting point lay within 156 to 158 °C.
Turning to `CC(C)(CCCCCCCCCCCCC1(C(=O)O)CC1)C(=O)O`, the melting point lay within 85.6 to 86.7 °C.
In the case of `O=C1N(c2ccc(Cl)cc2Cl)Cc2cnc(Nc3ccccc3)nc2N1c1cccc(CCN2CCOCC2)c1` it was 118 °C; in that of `CS(=O)(=O)Nc1ccc(Cl)c(F)c1`, 109 to 111 °C; in that of `CCC(C)Nc1nc2ccccc2c(=O)o1` (stereo not given), 122 to 123 °C.
For the compound `O=C(NO)c1ccc2c(c1)CCN(C(=O)NCc1ccccc1)C2`, the melting point was in the range of 149 to 153 °C.
The result for `CCOC(=O)C1Cc2cc3c(-c4ccccc4F)noc3cc2O1` (stereo not given) reads 115 to 116 °C; that for `CC(=O)NC(=O)CSC(=O)c1ccco1`, 103 to 105 °C.
In the case of `CC1(C)CC(c2ccccn2)c2cc(Cl)ccc2O1` (stereo not given) it was 124 to 125 °C; in that of `COc1ccccc1C1(CC(=O)O)C(=O)Nc2ccc(Cl)cc21` (stereo not given), 135 to 139 °C.
In the case of `COc1cn(-c2ccc(-n3nccc3O)cc2F)nc(-c2ccnn2-c2ccccc2)c1=O` it was 221 to 229 °C; in that of `Fc1ccc(Nc2ncnc3cnc(NC4CCC(N5CCOCC5)CC4)nc23)cc1Cl` (stereo not given), 233 to 235 °C; in that of `CC(C=O)Oc1ccc(OCc2ccccc2)cc1` (stereo not given), 50 to 51 °C.
`Cc1cc(=O)[nH]nc1-c1ccccc1` registered a melting point of 125 to 126 °C.
In the case of `CCOCc1cncc(-c2ccc3c(c2)nc(N)c2nc(COCC)n(CC(C)(C)O)c23)c1` it was 156 °C; in that of `Cc1cc2c(cc1C)C(c1ccccc1)(C(F)(F)F)c1cc(C)c(C)cc1O2`, 214 to 215 °C.
`NS(=O)(=O)OCCOS(N)(=O)=O` returned a melting point of 98.5 to 101 °C.
The result for `CCn1c(C)c(C(=O)c2nccnc2C(=O)O)c2ccccc21` reads 212 to 213 °C; that for `CCCCCCCC(c1cc(C)ccc1O)c1cc(C)ccc1O`, 108 to 109 °C.
In the case of `Cc1cc2c(=O)[nH]c(CCl)nc2cc1Cl` it was 287 to 290 °C; in that of `CC(=O)NCCc1coc2ccc(OCC#N)cc12`, 72 to 73 °C; in that of `O=c1c([N+](=O)[O-])c(O)c2cccnc2n1Cc1ccccc1`, 182 °C.
In the case of `CC(C)(C)n1nc(-c2ccc(C(F)(F)F)cc2)c(C#N)c1N` it was 155 to 156 °C; in that of `COC(=O)c1cc(O)c([N+](=O)[O-])cc1C(=O)OC`, 82 to 85 °C.
Take `C=CCC(O)(C(=O)c1ccc(C)cc1)c1ccc(C)cc1` (stereo not given): the melting point was 38 to 40 °C.
In the case of `O=C(c1ccccc1)N1Cc2c(-c3noc(C4CC4)n3)ncn2-c2cccc(F)c21` it was 234 to 236 °C.
`Cc1cc(Cc2ccccc2)nc(Nc2ccc(C(=O)NN)c(F)c2)n1` returned a melting point of 191 to 193 °C.
In the case of `CN(C)C1CCN(C2CCN(c3ncc4ncnc(Nc5ccc(F)c(Cl)c5)c4n3)CC2)CC1` it was 160 to 165 °C; in that of `OCC(=C(c1ccc(F)cc1)c1ccc(F)cc1)n1nnnc1-c1ccccc1`, 197 to 198 °C; in that of `O=C(CCCl)NCc1ccc2ccn(C3CCN(CCc4ccc(F)cc4)CC3)c2c1`, 121 to 122 °C.
`COC(=O)CCCCCCCCC=CCCCCCCCCC(=O)OC`: the melting point is 44 °C.
In the case of `CCCn1c(=O)c(C#N)c(N2CCN(C(=O)c3cccs3)CC2)c2cccnc21` it was 196 °C; in that of `CCCCCCCCCCCCCCC(=O)C(=O)NCCCC(=O)OC(C)(C)C`, 61 to 62 °C.
Regarding `OC(Cn1ccnc1)(c1ccc(Cl)cc1)C1(Oc2ccc(Cl)cc2)CC1` (stereo not given), the melting point was in the range of 172 to 173 °C.
In the case of `O=S(=O)(c1ccccc1)n1ccc2cnccc21` it was 127 °C; in that of `CC(C(=O)NC1=NCCS1)c1ccc(C(=O)c2cccs2)cc1` (stereo not given), 186 °C; in that of `CCCc1c(C(=O)OCC)nc2ccccc2c1OCc1ccccc1`, 127 to 129 °C.
The result for `CN1CCN(S(=O)(=O)c2ccc(N3CCC(NC[C@H](O)c4ccc(O)c(NS(C)(=O)=O)c4)CC3)cc2)CC1` reads 89 to 91 °C; that for `Cn1cc(C(N)=O)c(=O)c2sc(-c3ccccc3)cc21`, 266 to 268 °C; that for `CC(C)c1c(Sc2ccccc2)n(CC2=CCC(CO)C2)c(=O)[nH]c1=O` (stereo not given), 166 to 168 °C.
`OCC1=Cc2cccc(OCc3ccccc3)c2CC1`: the melting point was in the range of 59 to 61 °C.
Regarding `CC1(C)CCC(C)(C)c2c(C=O)cc(-c3ccccc3)cc21`, the melting point was 113 °C.
The result for `COc1ccccc1-c1nc(-c2ccccc2)nc(-c2ccccc2O)n1` reads 153 to 155 °C.
The result for `Cc1nc2c3cccc(Cl)c3ccn2c1CN(C)C` reads 157 to 160 °C; that for `COC(=O)C1CCc2nc(N)sc2C1` (stereo not given), 148 to 168 °C; that for `CC(C)(C)OC(=O)NC1COCCCC=CC2CC2(C(=O)NS(=O)(=O)C2CC2)NC(=O)C2CC(OC(=O)c3ccc(Oc4ccccc4)cc3)CN2C1=O` (stereo not given), 207 to 209 °C.
The result for `CCCCCC/C=C\CCCCCCCC(=O)N[C@H]1CCCNC(=O)C1` reads 67 to 68 °C; that for `CCN(CC)c1ccc(S(=O)(=O)N2CC(O)CC2=O)cc1` (stereo not given), 165 °C; that for `CCOC(=O)c1ccc(C(=O)Nc2ccc3c(c2)C(C)(C)CC(=O)N3C)cc1`, 197 to 199 °C.
The compound `ClCc1coc(-c2ccc3ccccc3c2)n1` registered a melting point of 116 to 117 °C.
Compound `O=S(=O)(Nc1cccc2c(O)cccc12)N1CCOCC1` displayed a melting point of 220 to 223 °C.
The result for `COC(=O)[C@@H]1C[C@H](C(=O)OC(C)(C)C)N(C(=O)CNC(=O)Nc2cccc(C)c2)[C@@H]1c1ccccc1` (racemic) reads 130 °C; that for `O=C(c1ccccn1)c1cnn2c(-c3cccc(NC(=O)C4CC4)c3)ccnc12`, 214 to 215 °C; that for `CCCCCCCCNC(=O)CSc1nc(Cl)cc(Nc2cccc(C)c2C)n1`, 144 to 146 °C.
Compound `C=CCOC(=O)C(=[N+]=[N-])C(=O)CC1CC(=O)N1` (stereo not given) yielded a melting point of 83 °C.
In the case of `COc1cc(O)c(C(=O)C=Cc2ccc(SC)cc2)c(OC)c1` it was 135 °C; in that of `CCOC(OCC)c1cc(NC(c2ccccc2)(c2ccccc2)c2ccccc2)c(F)c(Cc2ccc(F)cc2)n1`, 129 to 130 °C.
The result for `Cc1cccc(C2COc3cc(O)ccc3C2c2ccc(OCCN3CCCC3)cc2)c1` (stereo not given) reads 85 to 90 °C; that for `CC(C)(C)OC(=O)C(=NO)C(=O)CCOCc1ccccc1`, 98 to 100 °C; that for `COc1ccccc1C(C)(O)c1ccco1` (stereo not given), 64 to 66 °C.
In the case of `Cc1cc(C2=NOC(c3cc(Cl)cc(Cl)c3)(C(F)(F)F)C2)ccc1C(=O)NC1CSC1` (stereo not given) it was 158 to 159 °C; in that of `C=C1C(NC(=O)C(F)(F)F)CC(OC)OC1C` (stereo not given), 160 to 162 °C; in that of `CC(C)(C)CC(=O)Nc1ccc([N+](=O)[O-])cc1`, 192 to 194 °C.
`O=C1C(=Cn2ccnc2)c2ccccc2N1c1cccc(Cl)c1` displayed a melting point of 164 to 166 °C.
In the case of `COC(=O)C(=NO)N(C)c1cccc(C(F)(F)F)c1` it was 131 °C; in that of `CNC1([C@@H]2CCN(c3cc(N)c4c(=O)c(C(=O)O)cn([C@@H]5C[C@@H]5F)c4c3C)C2)CC1`, 129 to 131 °C.
The result for `O=C(O)/C=C/c1ccc(Oc2c(-c3ccccc3)c(C(F)(F)F)cc3ccccc23)cc1` reads 210 to 211 °C; that for `CCOC(=O)c1c(-c2ccc(O)cc2)c(C#N)c(=O)n2ccccc12`, 284 to 290 °C.
On to `OCc1cccc(Cc2c[nH]cn2)c1O`, for which the melting point is 152 to 155 °C.
In the case of `Cc1cc(=O)n2nc(-c3ccc(F)cc3)c(-c3ccncc3)c2[nH]1` it was over 280 °C.
The result for `O=C1N=C(Cc2c[nH]c3ccccc23)C(CCc2cc(C(F)(F)F)cc(C(F)(F)F)c2)O1` (stereo not given) reads 178 to 180 °C; that for `COc1ccc2c(c1)CC(Nc1ccc(O)cc1)C2` (stereo not given), 144 to 146 °C.
In the case of `CO[C@@H]1C[C@H](C)N(c2ccc(C#N)c3ccccc23)C1` it was 88 to 89 °C; in that of `CCOC(=O)N1Cc2sc3ncn(CCN4CCN(c5ccccc5OC)CC4)c(=O)c3c2C1`, 153 to 155 °C.
On to `CCOC(=O)C1=C(C)NC(N)=C(C(=O)OCCOC)C1c1cccc([N+](=O)[O-])c1` (stereo not given), for which the melting point was 174 °C.
The result for `CCCNc1nc(C#N)c(C#N)nc1-c1ccccc1` reads 136 to 137 °C.
In the case of `CCS(=O)c1nnc2n1C=Cc1ccccc1C2` (stereo not given) it was 98 to 99 °C.
The result for `N#Cc1ccc(N2C(=O)[C@@H]3[C@H](O)CCN3C2=S)c2ccccc12` reads 215 to 216 °C.
In the case of `Cc1cc(O)cc(C)c1-c1cccc(CO)c1`, the melting point is 175 °C.
As to `N#Cc1c[nH]c2cccc(O)c12`, the melting point lay in the range of 206 to 207 °C.
The compound `COc1ccc2cc(C(=O)C(C)N3CCN(Cc4ccccc4)CC3)ccc2c1` (stereo not given) registered a melting point of 149 to 150 °C.
In the case of `CN1C(=O)C2(COc3cc4c(cc32)OCO4)c2c(C3CCOC3)cccc21` (stereo not given) it was 182 to 184 °C; in that of `CCCCc1cccc(-c2cn(C)cc(-c3ccccc3)c2=O)c1`, 87 to 89 °C; in that of `CN(C#N)C(=O)CCC(=O)N(C)C#N`, 112 to 114 °C.
